Values joined by “and” are separate entries in the source; they are usually repeats but may differ in a detail not shown here. Equal values may be shown once.
Assays:
Type in all cases: binding
[1] = biological target: T1, USP7asoc (active site only cysteine) (Homo sapiens, UniProt Q93009, C300S/C315S/C334S/C478S/C488S/C510S); experiment: Differential scanning fluorimetry (DSF), melting temperature shift of USP7asoc mutant; conditions: 8 µM protein, 250 µM compound (1:31.25)
T1 construct: (208‐560, C300/315/334/448/478/510S); made in house
T1 sequence (Q93009 with tags, fused parts or gaps C300S/C315S/C334S/C478S/C488S/C510S): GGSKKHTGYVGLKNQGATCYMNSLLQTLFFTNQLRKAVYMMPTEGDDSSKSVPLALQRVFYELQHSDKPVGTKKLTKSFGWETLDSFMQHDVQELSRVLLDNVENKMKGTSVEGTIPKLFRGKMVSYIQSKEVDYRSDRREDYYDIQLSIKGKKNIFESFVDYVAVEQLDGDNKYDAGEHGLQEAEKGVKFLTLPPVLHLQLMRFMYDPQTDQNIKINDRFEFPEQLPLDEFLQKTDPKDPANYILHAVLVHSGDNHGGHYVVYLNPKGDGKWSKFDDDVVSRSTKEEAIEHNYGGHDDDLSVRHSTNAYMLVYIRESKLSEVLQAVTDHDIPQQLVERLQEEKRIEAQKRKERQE
Procedure: USP7asoc only retains the catalytic Cys223 while all the other six cysteines are mutated to serine. DSF was selected for initial assessment since it is an efficient and rapid primary screening method readily available to our lab. […] An important consideration when assessing covalent inhibitors is the time dependence of covalent target occupancy and thus potency, which is determined by the reaction kinetics of the covalent binding event. To allow for drawing conclusions on compounds with slower reaction kinetics, incubation times of 30 min, 4 h, and 24 h at 20°C were chosen for the DSF screen with USP7 (Table 1 and Figures 2 and 3). The threshold at which compounds were considered (de‐)stabilizers was defined at 0.5°C. In parallel, the intrinsic reactivity of a set of representative compounds was evaluated in a glutathione reactivity assay. […] The expression and purification of USP7 catalytic domain (USP7CD) (208‐560) and USP7asoc (active site only cysteine) by using a pET24a(+)_HLT_USP7 construct were performed as previously described. […] For the USP7asoc, six of the seven cysteines are mutated to serines (208‐560, C300/315/334/448/478/510S). All utilized protein sequences are depicted in Supporting Information S2: Table S.3.1. The melting temperatures of USP7 and USP7asoc in the presence or absence of fragments were determined by DSF on a Qiagen Rotor‐Q Model‐5‐Plex HRM real‐time PCR instrument (Qiagen, Hilden, Germany). SYPRO Orange (Life Technologies Corporation, Eugene, OR, USA) was used as a fluorescent dye at a final concentration of 5x. The protein concentration was 8 µM, and the final compound concentration was 250 µM, corresponding to a protein‐to‐compound ratio of 1:31.25. All compounds were dissolved in dimethyl sulfoxide (DMSO) and the proteins in Tris buffer (25 mM Tris pH 8.0, 150 mM NaCl, 5 mM TCEP, 5% (v/v) DMSO). All measurements were performed after 30 min, 4 h, and 24 h of incubation and at least in triplicate. DSF experiments were carried out with a constant heating rate of 270°C/h. The temperature was ramped from 28°C to 60°C–70°C with excitation and emission filters set at 470 nm and 610 nm, respectively. The melting temperatures (T m) of USP7 and USP7asoc were determined from the maxima of the first derivatives of the melting curves in OriginPro2020 (OriginLab, Northampton, MA, USA). The ∆T m was calculated by subtraction of the T m of the protein sample with pure DMSO from the T m of the protein sample mixed with compound. Error propagation was used to average multiple runs for a compound. A compound was considered to be a hit if the shift in the ∆T m was at least 0.50°C [55].

USP7asoc = biological target: T2, USP7asoc (Homo sapiens, UniProt Q93009, C300S/C315S/C334S/C478S/C488S/C510S); experiment: Intact protein MS (UHPLC-ESI-MS), covalent modification of USP7asoc; conditions: 24 h incubation at 20°C, protein-to-compound ratio 1:31.25
T2 construct: (208‐560, C300/315/334/448/478/510S); made in house
T2 sequence (Q93009 with tags, fused parts or gaps C300S/C315S/C334S/C478S/C488S/C510S): as above
Procedure: The DSF results described above were validated by UHPLC‐ESI‐MS to verify possible covalent binding through a corresponding mass shift. Intact protein MS is an important screening method in irreversible‐covalent hit identification and is especially suitable for covalent fragment‐based drug discovery (FBDD). It allows for the identification of covalent binders by detecting covalent protein‐compound adducts, thus making use of the stability of the covalent bond. USP7 was prepared in Tris buffer (25 mM Tris pH 8.0, 150 mM NaCl, 5 mM TCEP) with a protein‐to‐compound ratio of 1:31.25 and 5% (v/v) DMSO. The protein‐compound mixtures were all incubated at 20°C for 24 h on a rotating shaker. The analysis of intact protein mass was carried out using UHPLC‐ESI‐MS measurements, with data acquisition and data analysis as previously described.

USP7 [2] = biological target: T3, USP7 (Homo sapiens, UniProt Q93009); experiment: Differential scanning fluorimetry (DSF), melting temperature shift of USP7; conditions: 8 µM protein, 250 µM compound (1:31.25)
T3 construct: USP7 catalytic domain (USP7CD) (208‐560); made in house
T3 sequence (Q93009 with tags, fused parts or gaps): as the sequence (Q93009 with tags, fused parts or gaps C300S/C315S/C334S/C478S/C488S/C510S) above, with S96C, S111C, S130C, S274C, S284C, S306C counted along it
Source text: The influence of the synthesized compounds on the melting temperature (T m) of USP7 and its mutant USP7asoc (active site only cysteine) was investigated by DSF. USP7asoc only retains the catalytic Cys223 while all the other six cysteines are mutated to serine. DSF was selected for initial assessment since it is an efficient and rapid primary screening method readily available to our lab.
An important consideration when assessing covalent inhibitors is the time dependence of covalent target occupancy and thus potency, which is determined by the reaction kinetics of the covalent binding event. To allow for drawing conclusions on compounds with slower reaction kinetics, incubation times of 30 min, 4 h, and 24 h at 20°C were chosen for the DSF screen with USP7 (Table 1 and Figures 2 and 3). The threshold at which compounds were considered (de‐)stabilizers was defined at 0.5°C. In parallel, the intrinsic reactivity of a set of representative compounds was evaluated in a glutathione reactivity assay. […] Data obtained from the GSH reactivity studies are shown in Supporting Information S2: Table S2.1 and Figures S2.1–2.3.
The melting temperatures of USP7 and USP7asoc in the presence or absence of fragments were determined by DSF on a Qiagen Rotor‐Q Model‐5‐Plex HRM real‐time PCR instrument (Qiagen, Hilden, Germany). SYPRO Orange (Life Technologies Corporation, Eugene, OR, USA) was used as a fluorescent dye at a final concentration of 5x. The protein concentration was 8 µM, and the final compound concentration was 250 µM, corresponding to a protein‐to‐compound ratio of 1:31.25. All compounds were dissolved in dimethyl sulfoxide (DMSO) and the proteins in Tris buffer (25 mM Tris pH 8.0, 150 mM NaCl, 5 mM TCEP, 5% (v/v) DMSO). All measurements were performed after 30 min, 4 h, and 24 h of incubation and at least in triplicate. DSF experiments were carried out with a constant heating rate of 270°C/h. The temperature was ramped from 28°C to 60°C–70°C with excitation and emission filters set at 470 nm and 610 nm, respectively. The melting temperatures (T m) of USP7 and USP7asoc were determined from the maxima of the first derivatives of the melting curves in OriginPro2020 (OriginLab, Northampton, MA, USA). The ∆T m was calculated by subtraction of the T m of the protein sample with pure DMSO from the T m of the protein sample mixed with compound. Error propagation was used to average multiple runs for a compound. A compound was considered to be a hit if the shift in the ∆T m was at least 0.50°C [55].

USP7 [3] = biological target: T3, USP7; experiment: Intact protein MS (UHPLC-ESI-MS), covalent modification of USP7; conditions: 24 h incubation at 20°C, protein-to-compound ratio 1:31.25
Procedure: The DSF results described above were validated by UHPLC‐ESI‐MS to verify possible covalent binding through a corresponding mass shift. Intact protein MS is an important screening method in irreversible‐covalent hit identification and is especially suitable for covalent fragment‐based drug discovery (FBDD). It allows for the identification of covalent binders by detecting covalent protein‐compound adducts, thus making use of the stability of the covalent bond.
USP7 was prepared in Tris buffer (25 mM Tris pH 8.0, 150 mM NaCl, 5 mM TCEP) with a protein‐to‐compound ratio of 1:31.25 and 5% (v/v) DMSO. The protein‐compound mixtures were all incubated at 20°C for 24 h on a rotating shaker. The analysis of intact protein mass was carried out using UHPLC‐ESI‐MS measurements, with data acquisition and data analysis as previously described.

| Structure (SMILES) | ∆T m ± SD USP7asoc ([1]; 30 min incubation at 20°C) | ∆T m ± SD USP7asoc ([1]; 4 h incubation at 20°C) | ∆T m ± SD USP7asoc ([1]; 24 h incubation at 20°C) | ∆T m ± SD USP7 (USP7 [2]; 30 min incubation at 20°C) | ∆T m ± SD USP7 (USP7 [2]; 4 h incubation at 20°C) | ∆T m ± SD USP7 (USP7 [2]; 24 h incubation at 20°C) | protein species in deconvoluted mass spectrum of USP7asoc (USP7asoc) | protein species in deconvoluted mass spectrum of USP7 (USP7 [3]) |
| --- | --- | --- | --- | --- | --- | --- | --- | --- |
| O=[N+]([O-])c1ccc(F)nc1Nc1cc2c(-c3ccc4ccccc4c3)cccc2cn1 [7g, N‐(6‐Fluoro‐3‐nitropyridin‐2‐yl)‐5‐(naphthalen‐2‐yl)isoquinolin‐3‐amine] | 0.63 °C and 0.63 ± 0.07 °C | 0.25 ± 0.10 °C | 0.38 ± 0.06 °C | 0.10 ± 0.12 °C | 0.30 ± 0 °C | 0.25 ± 0.09 °C | mainly displayed the unmodified USP7 and USP7asoc species | mainly displayed the unmodified USP7 and USP7asoc species |
| CCCn1cc(-c2cccc3cnc(Nc4nc(Cl)ccc4[N+](=O)[O-])cc23)cn1 [8d, N‐(6‐Chloro‐3‐nitropyridin‐2‐yl)‐5‐(1‐propyl‐1H‐pyrazol‐4‐yl)isoquinolin‐3‐amine] | –0.20 ± 0.09 °C | 0.45 ± 0.12 °C | 0.42 ± 0.16 °C | 0.25 ± 0.09 °C | 0.30 ± 0 °C | 0.25 ± 0.09 °C | unmodified USP7 and USP7asoc were again dominant | unmodified USP7 and USP7asoc were again dominant |
| O=[N+]([O-])c1ccc(F)nc1Nc1cc2c(-c3cnn(CCO)c3)cccc2cn1 [7f, 2‐(4‐{3‐[(6‐Fluoro‐3‐nitropyridin‐2‐yl)amino]isoquinolin‐5‐yl}‐1H‐pyrazol‐1‐yl)ethan‐1‐ol] | 0.48 ± 0.09 °C | –0.23 ± 0.08 °C |  | 0.00 ± 0.12 °C |  |  | single‐arylated USP7 and USP7asoc as a main signal | single‐arylated USP7 and USP7asoc as a main signal |
| CCn1cc(-c2cccc3cnc(Nc4nc(Cl)ccc4[N+](=O)[O-])cc23)cn1 [8c, N‐(6‐Chloro‐3‐nitropyridin‐2‐yl)‐5‐(1‐ethyl‐1H‐pyrazol‐4‐yl)isoquinolin‐3‐amine] | 0.05 ± 0.09 °C | 0.25 ± 0.12 °C | 0.33 ± 0.08 °C | –0.15 ± 0.12 °C | 0.15 ± 0 °C | 0.15 ± 0 °C | only unmodified USP7 and USP7asoc were detected with a smaller peak corresponding to the single‐arylated protein species | only unmodified USP7 and USP7asoc were detected with a smaller peak corresponding to the single‐arylated protein species |

The next lines start with results.

| ∆T m ± SD USP7asoc ([1]; 30 min incubation at 20°C) | ∆T m ± SD USP7asoc ([1]; 4 h incubation at 20°C) | ∆T m ± SD USP7asoc ([1]; 24 h incubation at 20°C) | ∆T m ± SD USP7 (USP7 [2]; 30 min incubation at 20°C) | ∆T m ± SD USP7 (USP7 [2]; 4 h incubation at 20°C) | ∆T m ± SD USP7 (USP7 [2]; 24 h incubation at 20°C) | Structure (SMILES) | protein species in deconvoluted mass spectrum of USP7asoc (USP7asoc) | protein species in deconvoluted mass spectrum of USP7 (USP7 [3]) |
| --- | --- | --- | --- | --- | --- | --- | --- | --- |
| 0.63 °C and 0.63 ± 0.07 °C | 0.38 ± 0.08 °C | 0.40 ± 0.17 °C | 0.25 ± 0.12 °C | 0.30 ± 0 °C | 0.25 ± 0.09 °C | O=[N+]([O-])c1ccc(Cl)nc1Nc1cc2c(-c3ccc4ccccc4c3)cccc2cn1 [8g, N‐(6‐Chloro‐3‐nitropyridin‐2‐yl)‐5‐(naphthalen‐2‐yl)isoquinolin‐3‐amine] | only unmodified USP7 and USP7asoc were detected | only unmodified USP7 and USP7asoc were detected |
| 0.15 ± 0 °C | 0.35 ± 0.09 °C | 0.28 ± 0.04 °C | –0.25 ± 0.09 °C | 0.00 ± 0 °C | 0.05 ± 0.09 °C | O=[N+]([O-])c1ccc(Cl)nc1Nc1cc2c(-c3ccc(-c4cccnc4)cc3)cccc2cn1 [8h, N‐(6‐Chloro‐3‐nitropyridin‐2‐yl)‐5‐[4‐(pyridin‐3‐yl)phenyl]isoquinolin‐3‐amine] | unmodified USP7 and USP7asoc as the main peak | unmodified USP7 and USP7asoc as the main peak |
|  |  |  | –0.40 ± 0.09 °C | –0.15 ± 0 °C | –0.15 ± 0 °C | O=[N+]([O-])c1ccc(Cl)nc1Nc1cc2c(-c3cnn(C4CC4)c3)cccc2cn1 [8e, N‐(6‐Chloro‐3‐nitropyridin‐2‐yl)‐5‐(1‐cyclopropyl‐1H‐pyrazol‐4‐yl)isoquinolin‐3‐amine] | mainly showed signals for unmodified USP7 and USP7asoc | mainly showed signals for unmodified USP7 and USP7asoc |
| 0.10 ± 0.17 °C | –0.15 ± 0.15 °C | –0.15 ± 0.12 °C | 0.05 ± 0.09 °C |  | –0.03 ± 0.11 °C | O=[N+]([O-])c1ccc(Cl)nc1Nc1cc2c(-c3ccc(-c4ccncc4)cc3)cccc2cn1 [8i, N‐(6‐Chloro‐3‐nitropyridin‐2‐yl)‐5‐[4‐(pyridin‐4‐yl)phenyl]isoquinolin‐3‐amine] | unmodified USP7 and USP7asoc as the main peak | unmodified USP7 and USP7asoc as the main peak |

Source: publication PMC12336439 (Archiv Der Pharmazie, 2025)
